Assay results taken from ChEMBL document CHEMBL3396967, “Discovery of anthranilamides as a novel class of inhibitors of neurotropic alphavirus replication” (Bioorg Med Chem, 2015).
The source made the active and inactive calls. The rule behind the calls is not given here.

Legend:
[1] = Cytotoxicity against human BE(2)-C cells after 18 to 20 hrs by MTT assay; type: cell-based
[2] = target: MDR1 (ABCB1, P-glycoprotein) (Homo sapiens, UniProt P08183); assay: Inhibition of human MDR1 expressed in MDCK2 cells assessed as increase of rhodamine 123 uptake at 30 uM up to 240 mins relative to 5 uM tariquidar; type: ADME, cell-based, MDCK-II; details: MDCK2 cells expressing human MDR1, probe rhodamine 123, read-out: Activity
Sequence of MDR1 (ABCB1, P-glycoprotein) (P08183 whole entry): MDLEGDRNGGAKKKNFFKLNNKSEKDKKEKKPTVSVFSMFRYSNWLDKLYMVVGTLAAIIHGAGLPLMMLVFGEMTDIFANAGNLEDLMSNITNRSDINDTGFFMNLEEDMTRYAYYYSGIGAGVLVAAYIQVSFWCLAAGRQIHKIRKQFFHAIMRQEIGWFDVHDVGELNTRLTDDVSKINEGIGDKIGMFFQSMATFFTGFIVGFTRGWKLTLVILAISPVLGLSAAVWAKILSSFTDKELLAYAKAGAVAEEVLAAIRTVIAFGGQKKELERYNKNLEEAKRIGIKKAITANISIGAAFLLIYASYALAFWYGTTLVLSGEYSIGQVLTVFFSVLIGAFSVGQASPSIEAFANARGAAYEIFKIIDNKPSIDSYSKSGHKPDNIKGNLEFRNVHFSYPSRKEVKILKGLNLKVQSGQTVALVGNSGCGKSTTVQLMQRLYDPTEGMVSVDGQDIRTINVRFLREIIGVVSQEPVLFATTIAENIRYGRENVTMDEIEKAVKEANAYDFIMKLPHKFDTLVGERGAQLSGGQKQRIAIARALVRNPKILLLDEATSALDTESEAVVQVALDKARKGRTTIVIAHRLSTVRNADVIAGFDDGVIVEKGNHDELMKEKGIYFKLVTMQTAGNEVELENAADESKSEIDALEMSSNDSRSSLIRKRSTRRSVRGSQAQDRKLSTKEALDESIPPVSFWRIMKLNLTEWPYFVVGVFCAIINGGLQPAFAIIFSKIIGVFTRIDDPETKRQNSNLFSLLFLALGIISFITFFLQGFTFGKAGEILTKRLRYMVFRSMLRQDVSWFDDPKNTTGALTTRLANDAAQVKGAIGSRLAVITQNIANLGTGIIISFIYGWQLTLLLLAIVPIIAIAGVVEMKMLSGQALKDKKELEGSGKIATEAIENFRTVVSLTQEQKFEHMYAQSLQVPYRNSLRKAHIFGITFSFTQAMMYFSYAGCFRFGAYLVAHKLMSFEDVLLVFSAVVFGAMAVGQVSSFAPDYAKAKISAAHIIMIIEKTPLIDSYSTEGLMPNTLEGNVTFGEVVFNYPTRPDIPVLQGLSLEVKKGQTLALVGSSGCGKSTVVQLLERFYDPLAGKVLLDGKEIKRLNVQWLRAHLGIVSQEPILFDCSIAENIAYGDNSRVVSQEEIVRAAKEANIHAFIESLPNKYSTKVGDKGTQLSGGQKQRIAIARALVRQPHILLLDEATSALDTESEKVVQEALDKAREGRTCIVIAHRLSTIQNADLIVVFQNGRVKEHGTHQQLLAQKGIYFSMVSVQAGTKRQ

[3] = tested on: Liver; assay: (§1) Half life in BALB/c mouse liver microsomes at 1 uM in presence of NADPH by HPLC-MS/MS method; type: ADME; details: microsomes, 1 µM
[4] = Kinetic solubility of the compound in WEEV replication assay medium in presence of 10% fetal bovine serum; type: physicochemical; details: for Kinetic_solubility: serum; for solubility kinetic: WEEV replication assay medium with 10% fetal bovine serum, read-out: Kinetic_solubility
[5] = tested on: Fort Morgan virus; type: functional
[6] = tested on: Fort Morgan virus; type: functional; remark: listed apart in the source
[7] = tested on: Western equine encephalitis virus; type: functional
[8] = tested on: Fort Morgan virus; type: functional; remark: listed apart in the source
[9] = tested on: Western equine encephalitis virus; type: functional; remark: listed apart in the source
[10] = tested on: Fort Morgan virus; assay: Antiviral activity against Fort Morgan virus infected in HEK293 cells assessed as reduction of viral titer by plaque reduction assay relative to untreated control; type: functional, cell-based
[11] = tested on: Venezuelan equine encephalitis virus; assay: Antiviral activity against Venezuelan equine encephalitis virus TC-83 vaccine infected in HEK293 cells assessed as reduction of viral titer at 25 uM by plaque reduction assay relative to untreated control; type: functional
[12] = tested on: California encephalitis virus; assay: Antiviral activity against California encephalitis virus infected in HEK293 cells assessed as reduction of viral titer at 25 uM by plaque reduction assay relative to untreated control; type: functional
[13] = tested on: Encephalomyocarditis virus; assay: Antiviral activity against Encephalomyocarditis virus infected in HEK293 cells assessed as reduction of viral titer at 25 uM by plaque reduction assay relative to untreated control; type: functional
[14] = Inhibition of host cell cap-dependent translation in Cricetinae BSR-T7 cells assessed as suppression of pSV40-LUC activity at 0.1 to 10 uM after 20 hrs; type: functional, cell-based
[15] = tested on: BSR-T7; assay: Inhibition of host cell cap-independent translation in Cricetinae BSR-T7 cells assessed as suppression of pT7/CITE-LUC activity at 0.1 to 10 uM after 20 hrs; type: functional, cell-based
[16] = tested on: Western equine encephalitis virus; assay: microbe, parasite or virus in culture; details: BE(2)-C
[17] = target: ATP-dependent translocase ABCB1 (Homo sapiens, UniProt P08183); assay: Inhibition of human MDR1 expressed in MDCK2 cells assessed as increase of rhodamine 123 uptake at 5 uM up to 240 mins; type: ADME, cell-based; set-up: scale not given: the % may be the effect or the level left; details: mdck-ii, 4 h
Sequence of ATP-dependent translocase ABCB1 (P08183 whole entry): as above

[18] = tested on: Fort Morgan virus; type: functional; remark: listed apart in the source
[19] = as §1; type: ADME; details: BALB/c, liver microsomes

Structure (SMILES) | CC50 [1] [µM] | inhibition at 4 h, 30 µM [2] [%] | Kinetic_solubility [4] [µg/mL] | IC50 [16] [µM] | also measured
O=C(NCCc1ccncc1)C1CCN(C(=O)c2ccccc2Nc2ccc(Cl)cc2)CC1 | > 100 | 47.7 | > 250 | 1.6 | t1/2 [3]: 19 min; Activity [5]: 3.7 ×10⁶ PFU/ml; Activity [6]: 58.1%; Activity [7]: 3.2 ×10⁶ PFU/ml; Activity [8]: 54.6%; Activity [9]: 49.2 ×10⁶ PFU/ml; IC50 [10]: 5.2 µM; inhibition [10]: Dose-dependent effect; fold change (FC) [11]: 10; fold change (FC) [12]: 10; fold change (FC) [13]: 10; IC50 [14]: 2.2 µM; inhibition [15]: inactive
O=C(NCCc1ccncc1)C1CCN(c2cc(=O)n(Cc3ccc(Cl)cc3)c3ccccc23)CC1 | 34.1 | – | – | 10.9 | –
O=C(NCCc1ccncc1)C1CCN(C(=O)Cc2ccc(Cl)cc2)CC1 | > 100 | – | – | > 100 | –
O=C(NCCc1ccncc1)C1CCN(C(=O)[C@@H]2CCCN2Cc2ccc(Cl)cc2)CC1 | 91.6 | – | – | 13.5 | –
COc1cc2c(cc1OC)CN(CCc1ccc(NC(=O)c3cc(OC)c(OC)cc3NC(=O)c3cnc4ccccc4c3)cc1)CC2 | – | – | – | – | Activity [17]: 1123%
O=C(NCCc1ccncc1)C1CCN(C(=O)CCc2ccc(Cl)cc2)CC1 | > 100 | – | – | > 100 | –
O=C(NCCc1ccncc1)C1CCN(C(=O)c2ccccc2Oc2ccc(Cl)cc2)CC1 | 56 | 9.3 | – | 6.1 | t1/2 [3]: 18 min; solubility kinetic [4]: 62 µg/mL; Activity ([5]; 25 uM): inactive; Activity ([6]; 25 uM): inactive; Activity ([7]; 25 uM): inactive; Activity ([18]; 5 uM): inactive; Activity ([8]; 5 uM): inactive; Activity ([9]; 5 uM): inactive
O=C(NCCc1ccncc1)C1CCN(C(=O)c2cccc3c2[nH]c2ccc(Cl)cc23)CC1 | 66.1 | – | – | 18.7 | –
O=C(NCCc1ccncc1)C1CCN(C(=O)[C@@H]2CCCN2C(=O)c2ccc(Cl)cc2)CC1 | – | – | – | > 100 | –
O=C(NCCc1ccncc1)C1CCN(C(=O)c2ccccc2NCc2ccccc2)CC1 | 92.2 | 2.5 | > 250 | 19 | –
O=C(NCCc1ccncc1)C1CCN(C(=O)c2cccn2Cc2ccc(Cl)cc2)CC1 | > 100 | – | – | 0.68 | half-life at 1 µM [19]: 3 min; solubility kinetic [4]: 125 µg/mL
O=C(NCCc1ccncc1)C1CCN(C(=O)c2ccccc2NCCc2ccc(Cl)cc2)CC1 | 86 | 30.7 | > 250 | 3.49 | –
O=C(NCCc1ccncc1)C1CCN(C(=O)[C@H]2CCCN2Cc2ccc(Cl)cc2)CC1 | > 100 | – | – | 53.5 | –
O=C(c1ccc(Cl)cc1)c1ccccc1C(=O)N1CCC(C(=O)NCCc2ccncc2)CC1 | > 50 | 1.8 | > 250 | > 50 | –
O=C(NCCc1ccncc1)C1CCN(C(=O)c2ccccc2NCc2ccc(Cl)cc2)CC1 | 75.2 | 59.6 | > 250 | 0.56 | t1/2 [3]: 15 min; Activity [5]: 3.2 ×10⁶ PFU/ml; Activity [6]: 66.6%; Activity [7]: 1.6 ×10⁶ PFU/ml; Activity [18]: 9.4 ×10⁶ PFU/ml; Activity [8]: 73.3%; Activity [9]: 11.7 ×10⁶ PFU/ml; IC50 [10]: 2.3 µM; inhibition [10]: Dose-dependent effect; fold change (FC) [11]: 10; fold change (FC) [12]: 10; fold change (FC) [13]: 10; IC50 [14]: 1 µM; inhibition [15]: inactive
O=C(NCCc1ccncc1)C1CCN(C(=O)c2cccc3c2[nH]c2ccccc23)CC1 | > 100 | – | – | 59.2 | –
O=C(NCCc1ccncc1)C1CCN(C(=O)c2ccccc2Cc2ccc(Cl)cc2)CC1 | 70.7 | 22.6 | – | 1.46 | t1/2 [3]: 3 min; solubility kinetic [4]: 62 µg/mL
O=C(NCCc1ccncc1)C1CCN(C(=O)NCc2ccc(Cl)cc2)CC1 | > 100 | – | – | 60.2 | –
O=C(NCCc1ccncc1)C1CCN(C(=O)c2cc3ccccc3n2Cc2ccc(Cl)cc2)CC1 | – | – | – | 0.53 | half-life at 1 µM [19]: 9 min; solubility kinetic [4]: 31 µg/mL; IC50 [10]: 1 µM; IC50 [14]: 0.1 µM
CN(c1ccc(Cl)cc1)c1ccccc1C(=O)N1CCC(C(=O)NCCc2ccncc2)CC1 | > 100 | 3.9 | > 250 | 15.4 | –
O=C(NCCc1ccncc1)C1CCN(C(=O)[C@H]2CCCN2C(=O)c2ccc(Cl)cc2)CC1 | > 100 | – | – | > 100 | –
O=C(NCCc1ccncc1)C1CCN(c2cc(=O)n(-c3ccc(Cl)cc3)c3ccccc23)CC1 | > 100 | – | – | – | –
O=C(NCCc1ccncc1)C1CCN(C(=O)c2ccccc2Nc2ccccc2)CC1 | > 100 | 10.9 | > 250 | 28.8 | –
